{"source": "patent US20260284018A1", "about": "“DUAL INHIBITORS OF DYRK1A AND 5-HT2 FOR TREATING A BRAIN DISORDER” (THE REGENTS OF THE UNIVERSITY OF CALIFORNIA, priority 2023, published 2026)", "assay_in_all_cases": "KINOMEscan scanEDGE", "type_in_all_cases": "binding", "details_in_all_cases": "read-out: Percent Control", "key": {"PLK1": {"biological_target": "T1, PLK1 (Homo sapiens, UniProt P53350)", "T1 construct": "purchased Eurofins DiscoverX KINOMEscan scanEDGE", "experimental": "(§1) Kinome Scan. Compound HTW_A_8 fumarate was screened against 97 kinases at a single concentration of 10 μM at Eurofins DiscoverX using their KINOMEscan™ scanEDGE assay. The results are reported as the % activity relative to DMSO control, where lower values indicate higher affinity. See Table 1 for the full kinome profile."}, "FAK": {"biological_target": "T2, FAK (Homo sapiens, UniProt Q05397)", "T2 construct": "purchased Eurofins DiscoverX", "experimental": "as §1"}, "CHEK1": {"biological_target": "T3, CHEK1 (Homo sapiens, UniProt O14757)", "T3 construct": "purchased Eurofins DiscoverX", "experimental": "as §1"}, "CSNK1G2": {"biological_target": "T4, CSNK1G2 (Homo sapiens, UniProt P78368)", "T4 construct": "purchased Eurofins DiscoverX", "experimental": "as §1"}, "MAPKAPK2": {"biological_target": "T5, MAPKAPK2 (Homo sapiens, UniProt P49137)", "T5 construct": "purchased Eurofins DiscoverX (KINOMEscan scanEDGE service)", "experimental": "as §1"}, "ROCK2": {"biological_target": "T6, ROCK2 (Homo sapiens, UniProt O75116)", "T6 construct": "purchased Eurofins DiscoverX KINOMEscan scanEDGE", "experimental": "as §1"}, "[1]": {"biological_target": "T7, RSK2(Kin.Dom.1-N-terminal) (Homo sapiens, UniProt P51812)", "T7 construct": "RSK2(Kin.Dom.1-N-terminal); purchased Eurofins DiscoverX KINOMEscan scanEDGE", "T7 sequence (P51812 68-327 limits assumed)": "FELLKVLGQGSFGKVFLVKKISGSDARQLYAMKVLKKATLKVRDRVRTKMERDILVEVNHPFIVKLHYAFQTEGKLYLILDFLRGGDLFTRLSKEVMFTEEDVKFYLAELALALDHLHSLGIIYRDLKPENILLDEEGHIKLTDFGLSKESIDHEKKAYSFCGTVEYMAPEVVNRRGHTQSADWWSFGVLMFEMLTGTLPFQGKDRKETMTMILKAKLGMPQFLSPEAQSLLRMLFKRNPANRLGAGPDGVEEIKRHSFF", "experimental": "as §1"}, "IKK-alpha": {"biological_target": "T8, IKK-alpha (Homo sapiens, UniProt O15111)", "T8 construct": "purchased Eurofins DiscoverX", "experimental": "as §1"}, "JNK3": {"biological_target": "T9, JNK3 (Homo sapiens, UniProt P53779)", "T9 construct": "purchased Eurofins DiscoverX", "experimental": "as §1"}, "JNK2": {"biological_target": "T10, JNK2 (Homo sapiens, UniProt P45984)", "T10 construct": "purchased Eurofins DiscoverX", "experimental": "as §1"}, "PIM3": {"biological_target": "T11, PIM3 (Homo sapiens, UniProt Q86V86)", "T11 construct": "purchased Eurofins DiscoverX (KINOMEscan scanEDGE service)", "experimental": "as §1"}, "CSF1R": {"biological_target": "T12, CSF1R (Homo sapiens, UniProt P07333)", "T12 construct": "purchased Eurofins DiscoverX", "T12 sequence (P07333 20-972)": "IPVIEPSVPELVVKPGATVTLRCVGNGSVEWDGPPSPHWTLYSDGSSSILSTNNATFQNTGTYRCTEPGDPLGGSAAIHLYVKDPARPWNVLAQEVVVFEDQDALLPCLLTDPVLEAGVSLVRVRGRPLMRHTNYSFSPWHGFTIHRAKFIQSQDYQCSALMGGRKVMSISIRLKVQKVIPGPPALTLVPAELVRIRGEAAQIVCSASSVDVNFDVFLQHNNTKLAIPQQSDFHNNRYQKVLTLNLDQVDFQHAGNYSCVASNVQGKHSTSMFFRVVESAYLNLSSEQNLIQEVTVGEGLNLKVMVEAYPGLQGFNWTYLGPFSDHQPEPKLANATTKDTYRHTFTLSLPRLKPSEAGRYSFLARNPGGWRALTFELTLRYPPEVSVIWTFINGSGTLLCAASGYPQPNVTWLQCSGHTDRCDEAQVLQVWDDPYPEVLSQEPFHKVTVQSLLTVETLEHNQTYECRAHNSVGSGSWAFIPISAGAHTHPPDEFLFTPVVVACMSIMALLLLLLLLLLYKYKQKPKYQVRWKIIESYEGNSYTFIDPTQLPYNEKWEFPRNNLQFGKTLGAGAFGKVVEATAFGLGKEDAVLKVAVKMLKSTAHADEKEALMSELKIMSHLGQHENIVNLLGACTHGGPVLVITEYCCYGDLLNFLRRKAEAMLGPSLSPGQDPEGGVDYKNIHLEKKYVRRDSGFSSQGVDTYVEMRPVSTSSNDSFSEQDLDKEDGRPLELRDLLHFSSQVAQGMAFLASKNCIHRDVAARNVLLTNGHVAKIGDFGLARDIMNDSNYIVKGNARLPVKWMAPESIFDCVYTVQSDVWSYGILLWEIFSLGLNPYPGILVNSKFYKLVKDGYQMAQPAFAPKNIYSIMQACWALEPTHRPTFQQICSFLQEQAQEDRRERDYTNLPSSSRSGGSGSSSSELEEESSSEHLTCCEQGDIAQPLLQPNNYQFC", "experimental": "as §1"}, "PDGFRA": {"biological_target": "T13, PDGFRA (Homo sapiens, UniProt P16234)", "T13 construct": "purchased Eurofins DiscoverX (KINOMEscan scanEDGE service)", "experimental": "as §1"}, "SRPK3": {"biological_target": "T14, SRPK3 (Homo sapiens, UniProt Q9UPE1)", "T14 construct": "purchased Eurofins DiscoverX KINOMEscan scanEDGE", "experimental": "as §1"}, "SNARK": {"biological_target": "T15, SNARK (Homo sapiens, UniProt Q9H093)", "T15 construct": "purchased Eurofins DiscoverX KINOMEscan scanEDGE", "experimental": "as §1"}, "ZAP70": {"biological_target": "T16, ZAP70 (Homo sapiens, UniProt P43403)", "T16 construct": "purchased Eurofins DiscoverX KINOMEscan scanEDGE", "experimental": "as §1"}, "MKNK2": {"biological_target": "T17, MKNK2 (Homo sapiens, UniProt Q9HBH9)", "T17 construct": "purchased Eurofins DiscoverX (KINOMEscan scanEDGE service)", "experimental": "as §1"}, "[2]": {"biological_target": "T18, TYK2(JH1domain-catalytic) (Homo sapiens, UniProt P29597)", "T18 construct": "TYK2(JH1domain-catalytic); purchased Eurofins DiscoverX KINOMEscan scanEDGE", "T18 sequence (P29597 897-1176 limits assumed)": "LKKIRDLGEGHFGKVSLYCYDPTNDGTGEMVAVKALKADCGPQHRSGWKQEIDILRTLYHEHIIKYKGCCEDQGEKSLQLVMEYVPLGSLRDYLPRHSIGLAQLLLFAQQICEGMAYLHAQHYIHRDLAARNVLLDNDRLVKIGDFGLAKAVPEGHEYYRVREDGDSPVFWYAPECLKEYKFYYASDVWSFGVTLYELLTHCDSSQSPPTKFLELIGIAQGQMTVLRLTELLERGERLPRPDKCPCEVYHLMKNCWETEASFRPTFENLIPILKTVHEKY", "experimental": "as §1"}, "RET": {"biological_target": "T19, RET (Homo sapiens, UniProt P07949)", "T19 construct": "purchased Eurofins DiscoverX KINOMEscan scanEDGE", "T19 sequence (P07949 29-1114)": "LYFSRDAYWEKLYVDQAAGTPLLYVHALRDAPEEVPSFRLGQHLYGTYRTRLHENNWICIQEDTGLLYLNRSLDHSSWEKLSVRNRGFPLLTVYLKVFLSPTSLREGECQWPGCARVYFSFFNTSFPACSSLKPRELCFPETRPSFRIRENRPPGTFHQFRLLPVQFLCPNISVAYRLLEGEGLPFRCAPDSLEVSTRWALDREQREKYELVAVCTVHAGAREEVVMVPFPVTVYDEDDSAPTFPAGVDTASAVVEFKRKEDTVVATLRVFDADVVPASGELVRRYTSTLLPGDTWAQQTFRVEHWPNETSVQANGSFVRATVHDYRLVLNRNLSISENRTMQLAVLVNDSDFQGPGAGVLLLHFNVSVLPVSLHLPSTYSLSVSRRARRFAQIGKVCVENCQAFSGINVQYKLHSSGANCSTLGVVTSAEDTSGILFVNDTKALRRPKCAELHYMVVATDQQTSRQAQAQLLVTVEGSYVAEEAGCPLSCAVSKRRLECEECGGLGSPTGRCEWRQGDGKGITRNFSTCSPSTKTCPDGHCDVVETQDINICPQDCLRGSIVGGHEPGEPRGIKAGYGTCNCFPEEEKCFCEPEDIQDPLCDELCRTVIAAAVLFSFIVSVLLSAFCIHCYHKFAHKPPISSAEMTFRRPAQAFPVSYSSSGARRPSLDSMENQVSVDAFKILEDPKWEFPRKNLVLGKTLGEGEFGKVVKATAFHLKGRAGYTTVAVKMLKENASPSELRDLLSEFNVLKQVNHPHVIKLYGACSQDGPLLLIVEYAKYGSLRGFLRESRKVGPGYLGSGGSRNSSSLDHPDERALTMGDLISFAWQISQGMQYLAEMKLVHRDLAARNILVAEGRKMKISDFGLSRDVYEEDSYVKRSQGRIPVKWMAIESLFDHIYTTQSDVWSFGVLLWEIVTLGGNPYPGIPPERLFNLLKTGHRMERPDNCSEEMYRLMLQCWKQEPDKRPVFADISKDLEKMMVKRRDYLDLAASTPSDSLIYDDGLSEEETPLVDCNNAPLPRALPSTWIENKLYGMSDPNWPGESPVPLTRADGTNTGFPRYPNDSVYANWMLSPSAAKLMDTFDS", "experimental": "as §1"}, "PIK3CA": {"biological_target": "T20, PIK3CA (Homo sapiens, UniProt P42336)", "T20 construct": "purchased Eurofins DiscoverX (KINOMEscan scanEDGE service)", "experimental": "as §1"}, "BRAF(V600E)": {"biological_target": "T21, BRAF(V600E) (Homo sapiens, UniProt P15056, V600E)", "T21 construct": "purchased Eurofins DiscoverX", "experimental": "as §1"}, "PAK2": {"biological_target": "T22, PAK2 (Homo sapiens, UniProt Q13177)", "T22 construct": "purchased Eurofins DiscoverX (KINOMEscan scanEDGE service)", "experimental": "as §1"}, "PKAC-alpha": {"biological_target": "T23, PKAC-alpha (Homo sapiens, UniProt P17612)", "T23 construct": "purchased Eurofins DiscoverX KINOMEscan scanEDGE", "experimental": "as §1"}, "LKB1": {"biological_target": "T24, LKB1 (Homo sapiens, UniProt Q15831)", "T24 construct": "purchased Eurofins DiscoverX (KINOMEscan scanEDGE service)", "experimental": "as §1"}, "PIM2": {"biological_target": "T25, PIM2 (Homo sapiens, UniProt Q9P1W9)", "T25 construct": "purchased Eurofins DiscoverX (KINOMEscan scanEDGE service)", "experimental": "as §1"}, "TSSK1B": {"biological_target": "T26, TSSK1B (Homo sapiens, UniProt Q9BXA7)", "T26 construct": "purchased Eurofins DiscoverX KINOMEscan scanEDGE", "experimental": "as §1"}, "ERBB2": {"biological_target": "T27, ERBB2 (Homo sapiens, UniProt P04626)", "T27 construct": "purchased Eurofins DiscoverX", "experimental": "as §1"}, "PRKCE": {"biological_target": "T28, PRKCE (Homo sapiens, UniProt Q02156)", "T28 construct": "purchased Eurofins DiscoverX KINOMEscan scanEDGE", "experimental": "as §1"}, "RAF1": {"biological_target": "T29, RAF1 (Homo sapiens, UniProt P04049)", "T29 construct": "purchased Eurofins DiscoverX KINOMEscan scanEDGE", "experimental": "as §1"}, "[3]": {"biological_target": "T30, ABL1(T315I)-phosphorylated (Homo sapiens, UniProt P00519, T315I)", "T30 construct": "purchased Eurofins DiscoverX", "experimental": "as §1"}, "MARK3": {"biological_target": "T31, MARK3 (Homo sapiens, UniProt P27448)", "T31 construct": "purchased Eurofins DiscoverX (KINOMEscan scanEDGE service)", "experimental": "as §1"}, "INSR": {"biological_target": "T32, INSR (Homo sapiens, UniProt P06213)", "T32 construct": "purchased Eurofins DiscoverX", "experimental": "as §1"}, "IGF1R": {"biological_target": "T33, IGF1R (Homo sapiens, UniProt P08069)", "T33 construct": "purchased Eurofins DiscoverX", "T33 sequence (P08069 31-1367)": "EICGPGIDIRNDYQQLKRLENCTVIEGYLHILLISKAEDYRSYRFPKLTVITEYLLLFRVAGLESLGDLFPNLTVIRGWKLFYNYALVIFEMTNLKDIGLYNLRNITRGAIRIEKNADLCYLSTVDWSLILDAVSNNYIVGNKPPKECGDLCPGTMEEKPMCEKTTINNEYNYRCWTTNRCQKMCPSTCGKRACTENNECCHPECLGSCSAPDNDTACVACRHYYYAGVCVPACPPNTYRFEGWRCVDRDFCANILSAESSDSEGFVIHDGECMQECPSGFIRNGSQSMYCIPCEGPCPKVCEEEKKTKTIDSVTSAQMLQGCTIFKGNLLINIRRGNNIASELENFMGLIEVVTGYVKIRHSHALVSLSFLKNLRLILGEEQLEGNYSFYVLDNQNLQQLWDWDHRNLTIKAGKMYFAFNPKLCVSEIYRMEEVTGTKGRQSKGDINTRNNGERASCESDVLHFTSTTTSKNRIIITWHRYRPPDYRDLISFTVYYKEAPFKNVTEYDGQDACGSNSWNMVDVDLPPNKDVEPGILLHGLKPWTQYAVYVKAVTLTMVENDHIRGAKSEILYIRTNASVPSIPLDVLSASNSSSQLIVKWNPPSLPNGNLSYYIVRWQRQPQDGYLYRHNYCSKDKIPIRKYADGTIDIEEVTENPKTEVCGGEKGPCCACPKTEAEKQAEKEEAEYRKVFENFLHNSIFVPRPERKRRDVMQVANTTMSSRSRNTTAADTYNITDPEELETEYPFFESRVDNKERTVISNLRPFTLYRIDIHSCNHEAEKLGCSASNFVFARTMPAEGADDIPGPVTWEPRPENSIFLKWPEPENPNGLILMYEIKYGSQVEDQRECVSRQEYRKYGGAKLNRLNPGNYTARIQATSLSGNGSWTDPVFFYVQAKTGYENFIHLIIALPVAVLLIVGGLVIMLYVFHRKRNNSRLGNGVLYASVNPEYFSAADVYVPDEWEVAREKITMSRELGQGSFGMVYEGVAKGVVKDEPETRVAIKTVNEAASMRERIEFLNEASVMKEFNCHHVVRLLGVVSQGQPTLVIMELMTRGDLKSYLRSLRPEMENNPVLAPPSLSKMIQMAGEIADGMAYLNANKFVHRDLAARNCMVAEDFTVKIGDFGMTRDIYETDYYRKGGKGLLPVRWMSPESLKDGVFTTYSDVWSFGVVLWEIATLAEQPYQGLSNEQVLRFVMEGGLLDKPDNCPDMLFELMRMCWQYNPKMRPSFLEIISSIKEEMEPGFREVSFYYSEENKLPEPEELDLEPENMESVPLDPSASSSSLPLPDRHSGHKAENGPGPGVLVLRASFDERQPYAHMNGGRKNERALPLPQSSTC", "experimental": "as §1"}, "ALK": {"biological_target": "T34, ALK (Homo sapiens, UniProt Q9UM73)", "T34 construct": "purchased Eurofins DiscoverX", "experimental": "as §1"}, "KIT(V559D, T670I)": {"biological_target": "T35, KIT(V559D, T670I) (Homo sapiens, UniProt P10721, T670I/V559D)", "T35 construct": "purchased Eurofins DiscoverX", "experimental": "as §1"}, "p38-alpha": {"biological_target": "T36, p38-alpha (Homo sapiens, UniProt Q16539)", "T36 construct": "purchased Eurofins DiscoverX (KINOMEscan scanEDGE service)", "experimental": "as §1"}, "EGFR(L858R)": {"biological_target": "T37, EGFR(L858R) (Homo sapiens, UniProt P00533, L858R)", "T37 construct": "purchased Eurofins DiscoverX", "T37 sequence (P00533 25-1210 L858R)": "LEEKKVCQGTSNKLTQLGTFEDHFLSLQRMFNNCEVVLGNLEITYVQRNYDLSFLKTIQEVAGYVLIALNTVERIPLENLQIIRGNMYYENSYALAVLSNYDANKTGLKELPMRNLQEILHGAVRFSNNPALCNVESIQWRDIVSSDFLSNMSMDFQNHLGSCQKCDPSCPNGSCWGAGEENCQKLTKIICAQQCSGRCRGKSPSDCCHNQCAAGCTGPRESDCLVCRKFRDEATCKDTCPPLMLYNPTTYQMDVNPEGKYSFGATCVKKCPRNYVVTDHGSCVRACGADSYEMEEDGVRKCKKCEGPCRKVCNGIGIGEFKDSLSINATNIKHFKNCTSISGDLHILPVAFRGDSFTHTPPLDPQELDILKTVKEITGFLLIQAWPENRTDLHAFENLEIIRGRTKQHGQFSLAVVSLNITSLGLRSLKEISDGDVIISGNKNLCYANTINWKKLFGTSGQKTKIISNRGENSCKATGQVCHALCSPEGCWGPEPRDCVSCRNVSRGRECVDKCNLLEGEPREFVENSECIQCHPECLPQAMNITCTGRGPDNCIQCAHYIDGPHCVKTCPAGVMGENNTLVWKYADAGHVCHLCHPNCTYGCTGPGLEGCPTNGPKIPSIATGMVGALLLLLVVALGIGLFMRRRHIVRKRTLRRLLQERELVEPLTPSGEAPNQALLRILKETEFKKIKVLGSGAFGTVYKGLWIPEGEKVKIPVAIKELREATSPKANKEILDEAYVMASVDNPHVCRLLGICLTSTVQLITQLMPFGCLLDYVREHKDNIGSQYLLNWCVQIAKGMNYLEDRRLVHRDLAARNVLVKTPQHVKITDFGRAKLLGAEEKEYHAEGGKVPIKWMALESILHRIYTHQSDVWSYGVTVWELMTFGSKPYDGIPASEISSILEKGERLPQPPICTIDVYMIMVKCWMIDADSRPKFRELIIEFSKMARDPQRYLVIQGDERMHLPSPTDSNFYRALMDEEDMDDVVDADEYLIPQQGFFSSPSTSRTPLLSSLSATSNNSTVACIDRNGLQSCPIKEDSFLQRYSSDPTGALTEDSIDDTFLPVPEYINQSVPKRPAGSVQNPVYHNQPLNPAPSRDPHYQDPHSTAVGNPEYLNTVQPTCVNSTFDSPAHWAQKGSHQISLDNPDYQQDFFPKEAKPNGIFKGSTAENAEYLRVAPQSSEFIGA", "experimental": "as §1"}}}
{"smiles": "COc1ccc2c3ccnc(C)c3n(CCN(C)C)c2c1.O=C(O)/C=C/C(=O)O", "note": "[HTW_A_8 fumarate, 2-(7-methoxy-1-methyl-9H-pyrido[3,4-b]indol-9-yl)-N,N-dimethylethan-1-amine Fumarate Salt (2:3)]", "values": [{"measurement": "remaining binding at 10 µM", "setting": "PLK1", "result": 100, "unit": "%"}, {"measurement": "remaining binding at 10 µM", "setting": "FAK", "result": 100, "unit": "%"}, {"measurement": "remaining binding at 10 µM", "setting": "CHEK1", "result": 93, "unit": "%"}, {"measurement": "remaining binding at 10 µM", "setting": "CSNK1G2", "result": 86, "unit": "%"}, {"measurement": "remaining binding at 10 µM", "setting": "MAPKAPK2", "result": 99, "unit": "%"}, {"measurement": "remaining binding at 10 µM", "setting": "ROCK2", "result": 73, "unit": "%"}, {"measurement": "remaining binding at 10 µM", "setting": "[1]", "result": 99, "unit": "%"}, {"measurement": "remaining binding at 10 µM", "setting": "IKK-alpha", "result": 100, "unit": "%"}, {"measurement": "remaining binding at 10 µM", "setting": "JNK3", "result": 91, "unit": "%"}, {"measurement": "remaining binding at 10 µM", "setting": "JNK2", "result": 81, "unit": "%"}, {"measurement": "remaining binding at 10 µM", "setting": "PIM3", "result": 96, "unit": "%"}, {"measurement": "remaining binding at 10 µM", "setting": "CSF1R", "result": 98, "unit": "%"}, {"measurement": "remaining binding at 10 µM", "setting": "PDGFRA", "result": 100, "unit": "%"}, {"measurement": "remaining binding at 10 µM", "setting": "SRPK3", "result": 81, "unit": "%"}, {"measurement": "remaining binding at 10 µM", "setting": "SNARK", "result": 100, "unit": "%"}, {"measurement": "remaining binding at 10 µM", "setting": "ZAP70", "result": 93, "unit": "%"}, {"measurement": "remaining binding at 10 µM", "setting": "MKNK2", "result": 100, "unit": "%"}, {"measurement": "remaining binding at 10 µM", "setting": "[2]", "result": 97, "unit": "%"}, {"measurement": "remaining binding at 10 µM", "setting": "RET", "result": 95, "unit": "%"}, {"measurement": "remaining binding at 10 µM", "setting": "PIK3CA", "result": 100, "unit": "%"}, {"measurement": "remaining binding at 10 µM", "setting": "BRAF(V600E)", "result": 100, "unit": "%"}, {"measurement": "remaining binding at 10 µM", "setting": "PAK2", "result": 96, "unit": "%"}, {"measurement": "remaining binding at 10 µM", "setting": "PKAC-alpha", "result": 97, "unit": "%"}, {"measurement": "remaining binding at 10 µM", "setting": "LKB1", "result": 71, "unit": "%"}, {"measurement": "remaining binding at 10 µM", "setting": "PIM2", "result": 84, "unit": "%"}, {"measurement": "remaining binding at 10 µM", "setting": "TSSK1B", "result": 100, "unit": "%"}, {"measurement": "remaining binding at 10 µM", "setting": "ERBB2", "result": 100, "unit": "%"}, {"measurement": "remaining binding at 10 µM", "setting": "PRKCE", "result": 100, "unit": "%"}, {"measurement": "remaining binding at 10 µM", "setting": "RAF1", "result": 93, "unit": "%"}, {"measurement": "remaining binding at 10 µM", "setting": "[3]", "result": 100, "unit": "%"}, {"measurement": "remaining binding at 10 µM", "setting": "MARK3", "result": 100, "unit": "%"}, {"measurement": "remaining binding at 10 µM", "setting": "INSR", "result": 100, "unit": "%"}, {"measurement": "remaining binding at 10 µM", "setting": "IGF1R", "result": 85, "unit": "%"}, {"measurement": "remaining binding at 10 µM", "setting": "ALK", "result": 79, "unit": "%"}, {"measurement": "remaining binding at 10 µM", "setting": "KIT(V559D, T670I)", "result": 89, "unit": "%"}, {"measurement": "remaining binding at 10 µM", "setting": "p38-alpha", "result": 100, "unit": "%"}, {"measurement": "remaining binding at 10 µM", "setting": "EGFR(L858R)", "result": 87, "unit": "%"}]}
